Laboratory results reported in patent US9533961B2, “Molecules having certain pesticidal utilities, and intermediates, compositions, and processes related thereto” (priority 2014, dated 2017).

Columns and labels:
Type in all cases: in vivo
[1] = system: Cabbage Looper (Trichoplusia ni, TRIPNI) ("CL"); assay: Bioassay on Cabbage Looper (CL), 128-well diet tray assay; conditions: 168 h, read-out: CL % Control (or Mortality) rating
Method: (§1) Certain molecules disclosed in this document were tested against BAW and CEW using procedures described in the following examples. In the reporting of the results, the “BAW & CL Rating Table” was used (See Table Section).
Bioassays on CL were conducted using a 128-well diet tray assay. one to five second instar CL larvae were placed in each well (3 mL) of the diet tray that had been previously filled with 1 mL of artificial diet to which 50 μg/cm^2 of the test compound (dissolved in 50 μL of 90:10 acetone-water mixture) had been applied (to each of eight wells) and then allowed to dry. Trays were covered with a clear self-adhesive cover and held at 25° C., 14:10 light-dark for five to seven days. Percent mortality was recorded for the larvae in each well; activity in the eight wells was then averaged. The results are indicated in the table entitled “Table ABC: Biological Results” (See Table Section).

[2] = system: Beet Armyworm (Spodoptera exigua, LAPHEG) ("BAW"); assay: Bioassay on Beet Armyworm (BAW), 128-well diet tray assay; conditions: 168 h, 50 μg/cm^2 on artificial diet, second instar larvae, five to seven days, 25° C., average of eight wells, read-out: BAW % Control (or Mortality) rating
Method: as §1
Bioassays on BAW were conducted using a 128-well diet tray assay. one to five second instar BAW larvae were placed in each well (3 mL) of the diet tray that had been previously filled with 1 mL of artificial diet to which 50 μg/cm^2 of the test compound (dissolved in 50 μL of 90:10 acetone-water mixture) had been applied (to each of eight wells) and then allowed to dry. Trays were covered with a clear self-adhesive cover and held at 25° C., 14:10 light-dark for five to seven days. Percent mortality was recorded for the larvae in each well; activity in the eight wells was then averaged. The results are indicated in the table entitled “Table ABC: Biological Results” (See Table Section).

[3] = system: Yellow Fever Mosquito (Aedes aegypti, AEDSAE) ("YFM"); assay: Bioassay on Yellow Fever Mosquito (YFM), 96-well plate larval assay; conditions: about 1 day-old larvae, from 4000 ppm master plate, scored on mortality after 3 days
Method: Certain molecules disclosed in this document were tested against YFM using procedures described in the following paragraph. In the reporting of the results, the “YFM Rating Table” was used (See Table Section).
Master plates containing 400 μg of a molecule dissolved in 100 μL of dimethyl sulfoxide (DMSO) (equivalent to a 4000 ppm solution) are used. A master plate of assembled molecules contains 15 μL per well. To this plate, 135 μL of a 90:10 water:acetone mixture is added to each well. A robot (Biomek® NXP Laboratory Automation Workstation) is programmed to dispense 15 μL aspirations from the master plate into an empty 96-well shallow plate (“daughter” plate). There are 6 reps (“daughter” plates) created per master. The created daughter plates are then immediately infested with YFM larvae.
The day before plates are to be treated, mosquito eggs are placed in Millipore water containing liver powder to begin hatching (4 g. into 400 mL). After the daughter plates are created using the robot, they are infested with 220 μL of the liver powder/larval mosquito mixture (about 1 day-old larvae). After plates are infested with mosquito larvae, a non-evaporative lid is used to cover the plate to reduce drying. Plates are held at room temperature for 3 days prior to grading. After 3 days, each well is observed and scored based on mortality.

Compound | mortality at 50 µg/cm2 [1] [%] | mortality at 50 µg/cm2 [2] [%] | YFM % Control (or Mortality) rating [3]
O=C(Nc1ccc(-c2ncn(-c3ccc(OC(F)(F)F)cc3)n2)cc1)c1ccccc1Cc1ccccc1 [F3, 2-benzyl-N-(4-(1-(4-(trifluoromethoxy)phenyl)-1H-1,2,4-triazol-3-yl)phenyl)benzamide] | 50 to 100 | 50 to 100 | D (No activity noticed in this bioassay)
O=C(Nc1ccc(-c2ncn(-c3ccc(OC(F)(F)F)cc3)n2)cc1)c1ccccc1Oc1ccccc1 [F4, 2-Phenoxy-N-(4-(1-(4-(trifluoromethoxy)phenyl)-1H-1,2,4-triazol-3-yl)phenyl)benzamide] | 50 to 100 | 50 to 100 | D (No activity noticed in this bioassay)
O=C(Nc1ccc(-c2ncn(-c3ccc(OC(F)(F)F)cc3)n2)cc1)c1cccc(Oc2ccccc2)c1 [F5, 3-Phenoxy-N-(4-(1-(4-(trifluoromethoxy)phenyl)-1H-1,2,4-triazol-3-yl)phenyl)benzamide] | 50 to 100 | 0 | D (No activity noticed in this bioassay)
O=C(Nc1ccc(-c2ncn(-c3ccc(OC(F)(F)F)cc3)n2)cc1)c1ccc(Oc2ccccc2)cc1 [F6, 4-Phenoxy-N-(4-(1-(4-(trifluoromethoxy)phenyl)-1H-1,2,4-triazol-3-yl)phenyl)benzamide] | 50 to 100 | 50 to 100 | D (No activity noticed in this bioassay)
O=C(Nc1ccc(-c2ncn(-c3ccc(OC(F)(F)C(F)(F)F)cc3)n2)cc1)c1ccccc1Oc1ccccc1 [F8, N-(4-(1-(4-(Perfluoroethoxy)phenyl)-1H-1,2,4-triazol-3-yl)phenyl)-2-phenoxybenzamide] | 0 | 0 | D (No activity noticed in this bioassay)
O=C(Nc1ccc(-c2ncn(-c3ccc(OC(F)(F)C(F)(F)F)cc3)n2)cc1)c1cccc(Oc2ccccc2)c1 [F9, N-(4-(1-(4-(perfluoroethoxy)phenyl)-1H-1,2,4-triazol-3-yl)phenyl)-3-phenoxybenzamide] | 0 | 0 | D (No activity noticed in this bioassay)
O=C(Nc1ccc(-c2ncn(-c3ccc(OC(F)(F)C(F)(F)F)cc3)n2)cc1)c1ccc(Oc2ccccc2)cc1 [F10, N-(4-(1-(4-(perfluoroethoxy)phenyl)-1H-1,2,4-triazol-3-yl)phenyl)-4-phenoxybenzamide] | 0 | 0 | D (No activity noticed in this bioassay)
COc1ccccc1C(=O)Nc1ccc(-c2ncn(-c3ccc(OC(F)(F)F)cc3)n2)cc1 [F11, 2-Methoxy-N-(4-(1-(4-(trifluoromethoxy)phenyl)-1H-1,2,4-triazol-3-yl)phenyl)benzamide] | 0 | 50 to 100 | D (No activity noticed in this bioassay)
COc1ccccc1C(=O)Nc1ccc(-c2ncn(-c3ccc(OC(F)(F)C(F)(F)F)cc3)n2)cc1 [F12, 2-Methoxy-N-(4-(1-(4-(perfluoroethoxy)phenyl)-1H-1,2,4-triazol-3-yl)phenyl)benzamide] | 50 to 100 | 0 | D (No activity noticed in this bioassay)
COc1cccc(C(=O)Nc2ccc(-c3ncn(-c4ccc(OC(F)(F)F)cc4)n3)cc2)c1 [F13, 3-Methoxy-N-(4-(1-(4-(trifluoromethoxy)phenyl)-1H-1,2,4-triazol-3-yl)phenyl)benzamide] | 50 to 100 | 50 to 100 | B (More than 0 - Less than 80)
CC(C)c1cccc(C(=O)Nc2ccc(-c3ncn(-c4ccc(OC(F)(F)F)cc4)n3)cc2)c1 [F15, 3-Isopropyl-N-(4-(1-(4-(trifluoromethoxy)phenyl)-1H-1,2,4-triazol-3-yl)phenyl)benzamide] | 50 to 100 | 0 | D (No activity noticed in this bioassay)
CC(C)c1cccc(C(=O)Nc2ccc(-c3ncn(-c4ccc(OC(F)(F)C(F)(F)F)cc4)n3)cc2)c1 [F16, 3-Isopropyl-N-(4-(1-(4-(perfluoroethoxy)phenyl)-1H-1,2,4-triazol-3-yl)phenyl)benzamide] | 50 to 100 | 0 | D (No activity noticed in this bioassay)
CCOc1ccccc1Oc1ccccc1C(=O)Nc1ccc(-c2ncn(-c3ccc(OC(F)(F)F)cc3)n2)cc1 [F17, 2-(2-Ethoxyphenoxy)-N-(4-(1-(4-(trifluoromethoxy)phenyl)-1H-1,2,4-triazol-3-yl)phenyl)benzamide] | 0 | 0 to 50 | D (No activity noticed in this bioassay)
CCOc1ccccc1Oc1ccccc1C(=O)Nc1ccc(-c2ncn(-c3ccc(OC(F)(F)C(F)(F)F)cc3)n2)cc1 [F18, 2-(2-Ethoxyphenoxy)-N-(4-(1-(4-(perfluoroethoxy)phenyl)-1H-1,2,4-triazol-3-yl)phenyl)benzamide] | 0 | 0 | D (No activity noticed in this bioassay)
CC(C)COc1cccc(C(=O)Nc2ccc(-c3ncn(-c4ccc(OC(F)(F)F)cc4)n3)cc2)c1 [F19, 3-Isobutoxy-N-(4-(1-(4-(trifluoromethoxy)phenyl)-1H-1,2,4-triazol-3-yl)phenyl)benzamide] | 50 to 100 | 0 | D (No activity noticed in this bioassay)
O=C(Nc1ccc(-c2ncn(-c3ccc(OC(F)(F)F)cc3)n2)cc1)c1cccc(COCC(F)(F)C(F)F)c1 [F20, 3-((2,2,3,3-Tetrafluoropropoxy)methyl)-N-(4-(1-(4-(trifluoromethoxy)phenyl)-1H-1,2,4-triazol-3-yl)phenyl)benzamide] | 0 | 0 | B (More than 0 - Less than 80)
O=C(Nc1ccc(-c2ncn(-c3ccc(OC(F)(F)F)cc3)n2)cc1)c1cccc2c1OC(F)(F)O2 [F21, 2,2-Difluoro-N-(4-(1-(4-(trifluoromethoxy)phenyl)-1H-1,2,4-triazol-3-yl)phenyl)benzo[d][1,3]dioxole-4-carboxamide] | 50 to 100 | 50 to 100 | 
O=C(Nc1ccc(-c2ncn(-c3ccc(OC(F)(F)F)cc3)n2)cc1)c1ccc2c(c1)OC(F)(F)O2 [F22, 2,2-Difluoro-N-(4-(1-(4-(trifluoromethoxy)phenyl)-1H-1,2,4-triazol-3-yl)phenyl)benzo[d][1,3]dioxole-5-carboxamide] | 0 | 0 | 
O=C(Nc1ccc(-c2ncn(-c3ccc(OC(F)(F)F)cc3)n2)cc1)c1ccccc1COC1CCOCC1 [F23, 2-(((Tetrahydro-2H-pyran-4-yl)oxy)methyl)-N-(4-(1-(4-(trifluoromethoxy)phenyl)-1H-1,2,4-triazol-3-yl)phenyl)benzamide] | 50 to 100 | 50 to 100 | D (No activity noticed in this bioassay)
CC(C)c1cccc(C(=O)Nc2ccc(-c3ncn(-c4ccc(C(F)(F)F)cc4)n3)cc2)c1 [F24, 3-Isopropyl-N-(4-(1-(4-(trifluoromethyl)phenyl)-1H-1,2,4-triazol-3-yl)phenyl)benzamide] | 50 to 100 | 0 | D (No activity noticed in this bioassay)
O=C(Nc1ccc(-c2ncn(-c3ccc(OC(F)(F)F)cc3)n2)cc1)c1ccc(-c2ccccc2)cc1 [F25, N-(4-(1-(4-(trifluoromethoxy)phenyl)-1H-1,2,4-triazol-3-yl)phenyl)-[1,1′-biphenyl]-4-carboxamide] | 0 | 0 | D (No activity noticed in this bioassay)
